Results: patent US6827926B2, “Metallotetrapyrrolic photosensitizing agents for use in photodynamic therapy” (Miravant Pharmaceuticals, Inc., priority 2001, dated 2004)

Experiments:
[1] = tested on: uninjured coronary and iliac arteries; assay: Pig artery acute PDT experiments in uninjured arteries (acellularity); type: in vivo; details: 532 nm light, 55 J, 125 J/cm2, 250 mW
Procedure: (§1) Those photosensitizers showing excellent efficacy in the rat carotid artery model were evaluated in more detail in the pig coronary artery model (Waksman, R., Rodriguez, J. C., Robinson, K. A., Cipolla, G. D., Crocker, I. R., Scott, N. A. King, S. B., Wilcox, J. N., Circulation, 96, 1944-1952, 1997). If vascular PDT is to be proposed as a therapy to prevent restenosis in humans due to angioplasty or stenting, then it must first be shown to be effective in a large animal model such as the swine. Porcine coronary arteries are very similar to human coronary arteries with regard to size, neointima formation, and thrombosis in response to injury.
(§2) Photosensitizers were administered systemically (at doses typically 2-3.5 mg/kg body weight, in a soybean phospholipid formulation) as a slow bolus injection in the ear vein. Drug treatments were followed (1-4 hr later) by endovascular light treatment (50-250 J/cm^2 fluence and 100-300 mW/cm^2 irradiance) in uninjured coronary (50-250 J/cm^2 fluence and 100-300 mW/cm^2 irradiance) and iliac (50-350 J/cm^2 fluence and 100-450 mW/cm^2 irradiance) arteries. In another set of experiments, animals also received balloon injuries in the coronary arteries at the time of PDT treatment. Angioplasty injuries in 2 coronary arteries were performed. Vital signs and cardiovascular parameters such as ECG, HR, BP, were monitored together with arterio-angiograms for measurements of vessel patency.
For acute experiments done in uninjured arteries, 3-5 days after the PDT experiments, animals were sacrificed and serial sections of all relevant arteries (iliacs, & coronaries) were harvested in 10% formalin and processed for histological assessment. Results of PDT at this timepoint give us an insight into the selective cellular effects of PDT on VSMC and myofibroblasts which are known to be maximally proliferating and migrating at this same time in response to a vessel wall injury—such as an angioplasty.
For longer term efficacy experiments (14 days after the PDT experiments) animals were sacrificed and serial sections of all relevant arteries (coronaries only) were harvested in 10% formalin and processed for histological assessment. Representative arterial segments underwent parafin embedding and sectioning for Hemoxylin & Eosin and/or elastin staining. Slides were prepared for microscopy histological analysis of the (i) acute cellular responses and (ii) inhibition of neointima formation following treatment. Once prepared, the slides were analyzed via microscopy for histomorphometry and effects such as medial wall acellularity, arterial wall and surrounding tissue cell death and proliferation. […] The magnitude of the inhibition was greater than any other photosensitizer drug currently used by other groups in PDT (clinically or pre-clinically), and was on the order of that only previously seen with radiation in this model. Inhibition data is averaged over the injury length within the artery.

[2] = tested on: balloon-injured pig coronary arteries; assay: Pig coronary artery balloon injury model, 14 days (inhibition of neointima / intimal hyperplasia); type: in vivo; details: for average inhibition of intimal hyperplasia over the length of the injured artery: pig coronary arteries; for Intimal hyperplasia Inhibition (14 days) Av. over injury: pig coronary artery balloon injury, drug dose 3 mg/Kg, 532 nm light, 55 J, 125 J/cm2, 250 mW
Procedure: as §1
The swine model has been utilized in the preclinical evaluation of interventions to reduce restenosis for several reasons. Chief among these reasons are the similarities in (i) size and anatomy of the swine arteries to human arteries, that permits instrumentation and evaluation of results via catheters; and (ii) histopathological characteristics of the proliferative response following artery injury similar to that seen in humans. Furthermore, large animals including the swine have proven to be more predictive of success in reducing restenosis in humans than have small animal models. An extensive literature search (e.g., Weiner, B. H., et al. Circulation. 72:1081-1086,1985; Schwartz, R. S., et al. Circulation. 82:2190-2200, 1990; Vascular Brachytherapy, Veenendaal, The Netherlands:Nucletron B.V. 1996 pp.1-382) supports the notion that restenosis after balloon injury in porcine coronaries is the best model when compared to restenosis in humans. Therapies investigated in other species still must be confirmed in the porcine model. Several articles reviewing the relevant animal models for the study of restenosis have concluded that although imperfect, as are all animal models, the porcine model is still the best from the standpoint of similarity to human disease, ease of use, and cost (e.g., Schwartz, R. S., Murphy, J. G., Edwards, W. D., Camrud, A. R., Vlietstra, R. E., and Holmes, D. R. Restenosis after balloon angioplasty: A practical proliferative model in the porcine coronary arteries. Circulation. 82:2190-2200, 1990; Karas, S. P., Gravanis, M. B., Santoian, E. C., Robinson, K. A., and King, S. B., 3d Coronary intimal proliferation after balloon injury and stenting in swine: an animal model of restenosis. J.Am.Coll. Cardiology 20:467-474, 1992).
as §2
For longer term efficacy experiments (14 days after the PDT experiments) animals were sacrificed and serial sections of all relevant arteries (coronaries only) were harvested in 10% formalin and processed for histological assessment. Representative arterial segments underwent parafin embedding and sectioning for Hemoxylin & Eosin and/or elastin staining. Slides were prepared for microscopy histological analysis of the (i) acute cellular responses and (ii) inhibition of neointima formation following treatment. Once prepared, the slides were analyzed via microscopy for histomorphometry and effects such as medial wall acellularity, arterial wall and surrounding tissue cell death and proliferation. […]

[3] = Cardiovascular safety in pig coronary artery models (ECG, HR, BP); type: in vivo; details: doses exceeding 20 mg/Kg
Procedure: as §2

[4] = tested on: V79 (Chinese Hamster Lung Fibroblasts) cells; assay: In vitro cytotoxicity assay (light EC50, Alamar blue); type: cell-based; details: Table 3 porphyrins, 24 h drug incubation, 532 nm, 1.25 J/cm^2, read-out: In Vitro EC50 Light
In short: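 V79 cells in phenol-free 5% FBS/DMEM exposed 24 h to photosensitizer at final 0.01–5.0 μM, six replicates, then washed and light-treated, with a dark plate as control. Survival by Alamar blue after 24 h dark incubation, read at 570/600 nm.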

| Compound | Acellularity (%) (3 days) ([1]; drug dose 1 mg/Kg) | Acellularity (%) (3 days) ([1]; drug dose 2 mg/Kg) | Acellularity (%) (3 days) ([1]; drug dose 3 mg/Kg) | average inhibition of intimal hyperplasia over the length of the injured artery [2] | Intimal hyperplasia Inhibition (14 days) Av. over injury [2] | cardiotoxicity in pig coronary artery models [3] | EC50 [4] | average inhibition of intimal hyperplasia over the length of the injured artery ([2]; 3 mg/Kg, light fluence 125 J/cm^2) |
| --- | --- | --- | --- | --- | --- | --- | --- | --- |
| COC(=O)CCC1=C(C)c2cc3[n-]c(cc4nc(cc5[n-]c(cc1n2)c(CCC(=O)OC)c5C)C=C4C)cc3C.[Cl-].[Ga+3] [Example 4, Gallium Chloride Deuteroporphyrin Dimethyl Ester] | 50% | 70% | 95% | > 75% | >70% | no cardiotoxicity was observed | 400 nM | – |
| CCC1=C(C)C2=[N+]3C1=Cc1c(C)c(CC)c4[n]1[Ga-2]31([Cl])[n]3c(c(C)c(CCC(=O)NC)c3=CC3=[N+]1C(=C4)C(C)=C3CCC(=O)NC)=C2 [Example 121, Gallium Chloride Mesoporphyrin N-methyl Amide] | 45% | 75% | 95% | – | >70% | no cardiotoxicity was observed | 400 nM | > 75% |
| Gallium Chloride Mesoporphyrin Dimethyl Ester [Example 1] | 50% | 70% | 100% | > 80% | >80% | no cardiotoxicity was observed | 200 nM | – |
